According to US7405205B2, “Antitumor antisense sequences directed against R1 and R2 components of ribonucleotide reductase” (Lorus Therapeutics Inc., priority 1996, dated 2008):
Strand notation (5' to 3'): a small letter for the sugar, then the base; units joined by * are phosphorothioate-linked, units joined directly phosphodiester-linked; [ ] holds rarer units or linkages, { } end groups; capitals alone tell only the bases. d = 2'-deoxy (DNA)

Legend:
Assay type in all cases: cell-based, human
[1] = tested on: HepG2 hepatocellular carcinoma; assay: Relative colony forming efficiency after antisense treatment (Table 13, FIG. 12); conditions: 0.2 μM antisense oligodeoxyribonucleotide phosphorothioate; HepG2 cells; averages of 2-8 determinations
[2] = tested on: MDA-MB-231 breast cell adenocarcinoma; assay: Relative colony forming efficiency after antisense treatment (Table 13, FIG. 11, FIG. 12); conditions: 0.2 μM antisense oligodeoxyribonucleotide phosphorothioate; MDA-MB-231 cells; averages of 2-8 determinations
Description: Colony forming efficiency was determined as previously reported [Huang and Wright, 1994]. The cells were cultured for 24 hours at 37° C. in growth medium with 10% fetal bovine serum. The cells were washed in 5 ml phosphate buffered saline, pH 7.2, once prior to lipofectin+/−oligonucleotide treatment.
The oligonucleotides being tested were added to cell cultures in the presence of 2.5 μg of DOTMA/DOPE (Lipofectin; Life Technologies, Inc.) for four hours. The oligonucleotide was tested at 0.2 μM unless otherwise indicated. Controls were the cultures treated with lipofectin but without the oligonucleotide. After 4 hours the medium containing the oligonucleotide was removed and washed with 5 ml of growth medium. The cells were then cultured in growth medium containing 10% fetal bovine serum for seven to ten days. Surviving cells were visualized by methylene blue staining, and colonies were scored. In some experiments cell aliquotes were removed from the culture and viability was determined using the trypan blue exclusion test [Phillips, 1973]. Results were analyzed as percent of surviving cells compared to control cells.
To test the antisense effects of many of these sequences as phosphorthioate deoxyribonucleotides, they were examined in relative colony forming experiments performed with a series of human tumor cell lines. Many of these antisense constructs, as predicted, are potent inhibitors of human tumor cell proliferation. For results obtained with cancer cells derived from the bladder, breast, lung, colon, pancreas, prostate, liver and cervix, see Table 13. In addition, in vivo studies with AS-II-626-20 were undertaken in C3H/HeN mice as reported in Table 14 and show a significant reduction in metastasis in the antisense treated mice.
Colony forming ability of MDA-MB-231 human breast cancer cells treated with 28 different antisense oligonucleotides was estimated as previously described (Choy et al., 1988). Aliquots of cell suspension were seeded into 60 mm Petri dishes and incubated at 37° C. overnight in α-MEM medium supplemented with 10% fetal bovine serum. Cells were washed in 5 ml of phosphate buffered saline, pH 7.2, prior to 0.2 μM antisense/lipofectin treatments for 4 hours. The media containing the antisense oligonucleotides were removed and cells were washed once and cultured in growth medium for 7 to 10 days. Colonies were stained with methylene blue and scored as described (Choy et al., 1988; Huang and Wright 1994). Percent inhibition was calculated by comparison with the number of colonies present in cultures grown in the absence of antisense oligonucleotides. All experiments were performed in quadruplicate. FIG. 11 is a graph of the percentage inhibition of colony formation by treatment with the various antisense oligonucleotides.
Colony forming ability of various human tumor cell lines was estimated by determining relative colony forming efficiencies (Choy et al., 1988). Cells from various cell lines were washed in 5 ml of phosphate buffered saline, pH 7.2. The cells were treated with 0.2 μM AS-I-618-20 antisense oligonucleotide/lipofectin for 4 hours. The medium containing the antisense oligonucleotide was then removed and the cells were gently washed with 5 ml of growth medium. The cells were cultured in growth medium containing 10% fetal bovine serum for seven to ten days. […] The following human tumor cell lines were evaluated: HepG2 (liver), SK-OV-3 (ovary), U87 (brain), A2058 (melanoma), H460 (lung), MDA-MB-231 (breast) and AsPC-1 (pancreas).

[3] = tested on: PC-3 prostrate cell adenocarcinoma; assay: Relative colony forming efficiency after antisense treatment (Table 13); conditions: 0.2 μM antisense oligodeoxyribonucleotide phosphorothioate; PC-3 cells; averages of 2-8 determinations
[4] = tested on: T24 bladder cell carcinoma; assay: as above; conditions: 0.2 μM antisense oligodeoxyribonucleotide phosphorothioate; T24 cells; averages of 2-8 determinations
[5] = tested on: MIA PaCa-2 pancreatic cell carcinoma; assay: as above; conditions: 0.2 μM antisense oligodeoxyribonucleotide phosphorothioate; MIA PaCa-2 cells; averages of 2-8 determinations
A549 lung cell carcinoma = assay: as above; conditions: 0.2 μM antisense oligodeoxyribonucleotide phosphorothioate; A549 cells; averages of 2-8 determinations
[6] = tested on: HCT116 colon cell carcinoma; assay: as above; conditions: 0.2 μM antisense oligodeoxyribonucleotide phosphorothioate; HCT116 cells; averages of 2-8 determinations

Sequence	Reduced relative colony forming efficiency, expressed as % inhibition, HepG2 [1]	Reduced relative colony forming efficiency, expressed as % inhibition, MDA-MB-231 [2]	Reduced relative colony forming efficiency, expressed as % inhibition, PC-3 [3]	Reduced relative colony forming efficiency, expressed as % inhibition, T24 [4]	Reduced relative colony forming efficiency, expressed as % inhibition, MIA PaCa-2 [5]	Reduced relative colony forming efficiency, expressed as % inhibition, A549 (A549 lung cell carcinoma)	Reduced relative colony forming efficiency, expressed as % inhibition, HCT116 [6]
ATGGAAAAAAAAAATCAGCC (DNA, all phosphorothioate, methylation of C not given here) [AS-II-1390-20]	90.21%	66.89%	76.76%	61.13%	82.77%	88.31%	62.18%
CACACAACCTACTTACACCA (antisense; DNA, all phosphorothioate, methylation of C not given here) [AS-II-2372-20]		90.09%	86.06%	61.13%	94.36%	96.41%	64.7%
CGGGTCCGTGATGGGCGCGA (dC*dG*dG*dG*dT*dC*dC*dG*dT*dG*dA*dT*dG*dG*dG*dC*dG*dC*dG*dA; antisense) [AS-II-217-20]	99.55%	52.7%	87.41%	65.02%	87.38%		61.85%
CGTTGAGGAAAATACAGTGA (antisense; DNA, all phosphorothioate, methylation of C not given here) [AS-II-2182-20]	95.48%	84.95%	85.91%	67.76%	56.43%	90.97%	77.66%
GACATCACTCCCATCCTCTG (DNA, all phosphorothioate, methylation of C not given here) [AS-II-1302-20]		92.2%	79.01%	70.56%	23.86%	93.17%	71.98%
GAGAAATAAAATGAAACGGC (antisense; DNA, all phosphorothioate, methylation of C not given here) [AS-II-2164-20]	93.07%	69.03%	83.36%	61.84%	89.36%	91.15%	50.08%
GCAAAGAAAGCCAGAACATG (dG*dC*dA*dA*dA*dG*dA*dA*dA*dG*dC*dC*dA*dG*dA*dA*dC*dA*dT*dG; antisense) [AS-II-579-20]	94.28%	66.89%	88.16%	76.68%	97.55%	95.49%	69.08%
GCACATCTTCAGTTCATTTA (DNA, all phosphorothioate, methylation of C not given here) [AS-II-1362-20]	80.41%	70.22%	77.38%		44.14%	83.9%	78.47%
GGGCACATCTTCAGTTCATT (DNA, all phosphorothioate, methylation of C not given here) [AS-II-1364-20]		93.87%	79.01%	66.59%	59.34%	95.59%	77.29%
TGCCTCCGACCCTTCCCATT (antisense dT*dG*dC*dC*dT*dC*dC*dG*dA*dC*dC*dC*dT*dT*dC*dC*dC*dA*dT*dT) [AS-II-14-20]	88.4%	91.24%	92.76%	77.59%	47.93%		
TTAGTGGTCAGGAGAATGTA (antisense; DNA, all phosphorothioate, methylation of C not given here) [AS-II-1819-20]	83.89%	90.68%	85.46%	53.74%	20.02%		
